Experimental data as given in patent publication US20050026845A1, “Pharmaceutical/cosmetic compositions comprising the lysine-D-proline-valine tripeptide” (priority 1995, published 2005).
Blank lines part the entries; values can stand above or below the compound they belong to. Non-standard residues stand in square brackets, D forms with d. Residues, ends and D or L forms follow the SMILES beside them.

How the values were obtained:
catagenic papilla cells = experiment: Inhibition of IL-1α-induced production of PGE2 by catagenic papilla cells cultured in vitro; format: cell-based; details: 10 μM tripeptide; for PGE2: IL-1α 10 ng/ml, control 9.2, IL-1α alone 100.2; for % inhibition: PGE2 induced by IL-1α 10 ng/ml
Experimental: Measurement of the inhibition of the production of PGE2 by catagenic papilla cells cultured in vitro.
The cells (1,000 per well), at the 24th passage, were incubated in 199 medium marketed by Gibco in the presence of 1% foetal calf serum and of antibiotics. 20 hours later, the medium was replaced by an identical medium, but containing the tripeptides to be evaluated at a final concentration of 10 μM. 5 hours later, interleukin-1α was added at a final concentration of 10 ng/ml. 20 hours later, the PGE2 levels produced by the cultured papilla cells were evaluated by means of a Biotrack kit marketed by Amersham, the manufacturer's instructions being followed. This method thus made it possible to evaluate the inhibiting effect of these tripeptides on the production of PGE2 induced by a proinflammatory cytokine: interleukin-1α.

IL-1α [1] = experiment: Expression of IL-1α mRNA in plucked hairs (RT-PCR, relative to GAPDH), 3 h 30 min; format: cell-based, human; details: treated batch vs control batch (100%), dose not given
Experimental: (§1) Inhibition of the expression of the messenger RNAs of proinflammatory and inflammatory cytokines in response to the Ac-LPV-NH2* tripeptide.
(§2) Ten plucked hairs were removed from the region of the vertex of a volunteer suffering from inflammatory alopecia. These were placed in a Williams' survival medium E (marketed by Gibco BRL) containing penicillin G (100 units/ml), streptomycin S (100 μg/ml) and amphotericin (250 ng/ml), in the presence (treated batch) or in the absence (control) of the Ac-LPV-NH2* tripeptide, synthesized to order by Neosystem S.A., (Strasbourg).
(§3) After incubating for 3 h, 30 min, the messenger RNAs corresponding to these two batches of hair were purified from a “quick prep mRNA purification kit” marketed by Pharmacia. DNAs complementary to these mRNAs were then prepared by means of a reverse transcription kit marketed by Pharmacia, the manufacturer's instructions being followed, and then subjected to a polymerization chain reaction (PCR) stage by using primers specific for the mRNAs of glyceraldehyde-3-phosphate dehydrogenase (GAPDH), of IL-1α, of the type-1 IL-1 receptor and of the type-2 IL-1 receptor. The amounts of amplified DNA were then evaluated by electrophoresis on 1.5% agarose gel in the presence of ethidium bromide. […]

[2] = test system: type-1 IL-1 receptor (IL-1R1); experiment: Expression of type-1 IL-1 receptor mRNA in plucked hairs (RT-PCR, relative to GAPDH), 3 h 30 min; format: cell-based, human; details: treated batch vs control batch (100%), dose not given
Experimental: as §1, §2, §3

interleukin-1α = experiment: Production of interleukin-1α in the supernatant of plucked hairs (ELISA); format: cell-based, human; details: 20 hours; for % of inhibition: IL-1α in supernatant; for IL-1α: plucked hairs from inflammatory alopecia, control 21.8 pg/ml
Experimental: Dose-response activity of the Ac-LPV-NH2* tripeptide with respect to the production of interleukin-1α in the supernatant of plucked hairs emanating from a patient afflicted with inflammatory alopecia.
Plucked hairs were removed from the region of the vertex of a volunteer suffering from inflammatory alopecia. They were placed in a Williams' survival medium E (marketed by Gibco BRL) containing penicillin G (100 units/ml), streptomycin S (100 μg/ml) and amphotericin (250 ng/ml), in the presence or in the absence (control) of the Ac-LPV-NH2* tripeptide, synthesized to order by Neosystem S.A. (Strasbourg), at the doses indicated. After incubating for 20 hours, the culture supernatants were collected in a tube and then centrifuged for 5 minutes at 14,000 revolutions/minute (Eppendorff centrifuge, model 5415C). The supernatants were then collected in a clean tube and placed at 4° C.
The interleukin-1α concentration was then evaluated with respect to 100 μl of supernatant by means of a Biotrak ELISA kit marketed by Amersham, according to the manufacturer's instructions.

IL-1α [3] = experiment: Expression of the mRNAs of IL-1α from the IL-1α/GAPDH ratio, plucked hairs of two donors, 20 hours; format: cell-based, human
Experimental: Inhibiting effect of Ac-LPV-NH2* on the expression of the mRNAs of IL-1α, calculated from the IL-1α/GAPDH ratio.
5 hairs were plucked from two different donors and were then incubated for 20 hours at 37° C. (5% CO2) in Williams' medium E supplemented with antibiotics and with glutamine and in the presence of Ac-LPV-NH2* at the concentrations indicated. A control was carried out in which there was no peptide added.

Compound: CC(=O)N[C@@H](CCCCN)C(=O)N1CCC[C@H]1C(=O)N[C@H](C(N)=O)C(C)C [Acetyl-(L) Lys-(L) Pro-(L) Val-NH2, reference compound] (Ac-Lys-Pro-Val-NH2)
PGE2 (catagenic papilla cells): 10.0 pg/mL
% inhibition (catagenic papilla cells): 90%

Compound: CC(=O)N[C@@H](CCCCN)C(=O)N1CCC[C@@H]1C(=O)N[C@H](C(N)=O)C(C)C [Ac-L-(D)P-V-NH2***, Acetyl-(L) Lys-(D) Pro-(L) Val-NH2] (Ac-Lys-[dP]-Val-NH2)
PGE2 (catagenic papilla cells): 24.6 pg/mL
% inhibition (catagenic papilla cells): 75%

% of expression IL-1R1 [2]: 26%
Compound: CC(=O)N[C@H](CCCCN)C(=O)N1CCC[C@@H]1C(=O)N[C@@H](C(N)=O)C(C)C [Acetyl-(D) Lys-(D) Pro-(D) Val-NH2] (Ac-[dK]-[dP]-[dV]-NH2)
% of expression IL-1α (IL-1α [1]): 0%
% of inhibition (interleukin-1α; dose 1 μM): 49%
IL-1α (interleukin-1α; dose 1 μM): 11.1 pg/mL
% of inhibition (interleukin-1α; dose 10 μM): 72%
IL-1α (interleukin-1α; dose 10 μM): 6.1 pg/mL
expression of the mRNAs of IL-1α, % of the control (IL-1α [3]; donor A, 1 μM): 51%
expression of the mRNAs of IL-1α, % of the control (IL-1α [3]; donor A, 10 μM): 28%
expression of the mRNAs of IL-1α, % of the control (IL-1α [3]; donor B, 0.1 μM): 53%
expression of the mRNAs of IL-1α, % of the control (IL-1α [3]; donor B, 1 μM): 62%
expression of the mRNAs of IL-1α, % of the control (IL-1α [3]; donor B, 10 μM): 28.7%
PGE2 (catagenic papilla cells): 28.0 pg/mL
% inhibition (catagenic papilla cells): 78%
